This test addresses PARP7 (Homo sapiens (Human), UniProt Q7Z3E1). As to the kind of experiment: Enzymatic assay for inhibition of PARP7: TR-FRET displacement of biotinylated Probe A from the TIPARP active site. It is filed as binding. The note with it: Table A-1. In a few lines:
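TR-FRET, ex 320 nm / em 615 and 665 nm. Signal ratio reflects complex formation.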

PARP7, sequence (Q7Z3E1 whole entry): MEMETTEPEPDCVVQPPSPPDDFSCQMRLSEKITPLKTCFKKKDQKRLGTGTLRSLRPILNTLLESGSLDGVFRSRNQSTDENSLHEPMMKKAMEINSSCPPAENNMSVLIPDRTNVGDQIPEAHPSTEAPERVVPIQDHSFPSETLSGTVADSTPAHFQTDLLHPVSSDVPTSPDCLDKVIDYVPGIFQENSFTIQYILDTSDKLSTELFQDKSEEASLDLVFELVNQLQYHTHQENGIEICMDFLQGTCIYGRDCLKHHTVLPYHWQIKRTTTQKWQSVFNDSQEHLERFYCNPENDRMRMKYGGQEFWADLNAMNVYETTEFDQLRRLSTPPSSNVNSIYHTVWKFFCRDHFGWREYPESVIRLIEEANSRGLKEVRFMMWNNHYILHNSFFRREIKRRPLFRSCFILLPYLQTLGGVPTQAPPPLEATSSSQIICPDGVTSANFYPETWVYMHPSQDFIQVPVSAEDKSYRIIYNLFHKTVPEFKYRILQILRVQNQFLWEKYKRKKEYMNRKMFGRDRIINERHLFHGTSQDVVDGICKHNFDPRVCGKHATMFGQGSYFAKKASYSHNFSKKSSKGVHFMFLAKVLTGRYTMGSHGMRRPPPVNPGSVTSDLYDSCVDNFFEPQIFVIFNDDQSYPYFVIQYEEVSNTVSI

For the compound `O=c1[nH]ncc(N2Cc3cccc(OCC4CCCCO4)c3C2)c1C(F)(F)F` (stereo not shown) [Example 216, 5-(4-((Tetrahydro-2H-pyran-2-yl)methoxy)isoindolin-2-yl)-4-(trifluoromethyl)pyridazin-3(2H)-one], the IC50 (commonly the point on the concentration scale where inhibition reaches its midpoint) is below 100 nM.

On to `CNCCOc1cccc2c1CN(c1cn[nH]c(=O)c1C(F)(F)F)C2` [Example 217, 5-(4-(2-(Methylamino)ethoxy)isoindolin-2-yl)-4-(trifluoromethyl)pyridazin-3(2H)-one], for which the IC50 is 100 to 1000 nM. The figure for `O=c1[nH]ncc(N2Cc3ccc(OC4CCNC4)cc3C2)c1C(F)(F)F` (stereo not shown) [Example 218, 5-(5-(Pyrrolidin-3-yloxy)isoindolin-2-yl)-4-(trifluoromethyl)pyridazin-3(2H)-one] is below 100 nM; for `O=c1[nH]ncc(N2Cc3ccc(O)cc3C2)c1C(F)(F)F` [Example 219, 5-(5-Hydroxyisoindolin-2-yl)-4-(trifluoromethyl)pyridazin-3(2H)-one] it is below 100 nM; for `O=c1[nH]ncc(N2Cc3cccc(OCCN4CCNCC4)c3C2)c1Cl` [Example 220, 4-Chloro-5-(4-(2-(piperazin-1-yl)ethoxy)isoindolin-2-yl)pyridazin-3(2H)-one] it is 100 to 1000 nM. `NCc1cccc2c1CN(c1cn[nH]c(=O)c1C(F)(F)F)C2` [Example 221, 5-(4-(Aminomethyl)isoindolin-2-yl)-4-(trifluoromethyl)pyridazin-3(2H)-one] showed a 50% inhibitory concentration (IC50) of at least 1000 nM. The figure for `O=c1[nH]ncc(N2Cc3cccc(OC[C@H]4CCCO4)c3C2)c1C(F)(F)F` [Example 223, (R)-5-(4-((Tetrahydrofuran-2-yl)methoxy)isoindolin-2-yl)-4-(trifluoromethyl)pyridazin-3(2H)-one] is below 100 nM; for `CC(=O)N(C)CCOc1cccc2c1CN(c1cn[nH]c(=O)c1C(F)(F)F)C2` [Example 224, N-Methyl-N-(2-((2-(6-oxo-5-(trifluoromethyl)-1,6-dihydropyridazin-4-yl)isoindolin-4-yl)oxy)ethyl)acetamide] it is below 100 nM.

`CC(=O)N1CCC(Oc2cccc3c2CN(c2cn[nH]c(=O)c2C(F)(F)F)C3)CC1` [Example 225, 5-(4-((1-Acetylpiperidin-4-yl)oxy)isoindolin-2-yl)-4-(trifluoromethyl)pyridazin-3(2H)-one] showed an IC50 below 100 nM. To `CN1CCN(CCOc2cccc3c2CN(c2cn[nH]c(=O)c2C(F)(F)F)C3)CC1` [Example 226, 5-(4-(2-(4-Methylpiperazin-1-yl)ethoxy)isoindolin-2-yl)-4-(trifluoromethyl)pyridazin-3(2H)-one] belongs below 100 nM. With `O=c1[nH]ncc(N2Cc3cccc(OCCN4CCNCC4)c3C2)c1C(F)(F)F` [Example 227, 5-(4-(2-(Piperazin-1-yl)ethoxy)isoindolin-2-yl)-4-(trifluoromethyl)pyridazin-3(2H)-one], the IC50 was below 100 nM.

As to `CC(=O)N1CCN(CCOc2cccc3c2CN(c2cn[nH]c(=O)c2C(F)(F)F)C3)CC1` [Example 228, 5-(4-(2-(4-Acetylpiperazin-1-yl)ethoxy)isoindolin-2-yl)-4-(trifluoromethyl)pyridazin-3(2H)-one], the IC50 was below 100 nM. On to `COCCOc1ccc2c(c1)CN(c1cn[nH]c(=O)c1C(F)(F)F)C2` [Example 229, 5-(5-(2-Methoxyethoxy)isoindolin-2-yl)-4-(trifluoromethyl)pyridazin-3(2H)-one], for which the IC50 was below 100 nM. To `CC(=O)N1CCN(CCOc2cccc3c2CN(c2cn[nH]c(=O)c2Cl)C3)CC1` [Example 230, 5-(4-(2-(4-Acetylpiperazin-1-yl)ethoxy)isoindolin-2-yl)-4-chloropyridazin-3(2H)-one] belongs 100 to 1000 nM; to `NCC1c2ccccc2CN1c1cn[nH]c(=O)c1Cl` (stereo not shown) [Example 231, 5-(1-(Aminomethyl)isoindolin-2-yl)-4-chloropyridazin-3(2H)-one], at least 1000 nM. In turn, `O=c1[nH]ncc(N2Cc3cccc(Oc4ccncc4)c3C2)c1C(F)(F)F` [Example 232, 5-(4-(pyridin-4-yloxy)isoindolin-2-yl)-4-(trifluoromethyl)pyridazin-3(2H)-one trifluoroacetic acid] yielded an IC50 below 100 nM. With `O=c1[nH]ncc(N2Cc3cccc(Oc4cccnc4)c3C2)c1C(F)(F)F` [Example 233, 5-(4-(Pyridin-3-yloxy)isoindolin-2-yl)-4-(trifluoromethyl)pyridazin-3(2H)-one], the 50% inhibitory concentration (IC50) is below 100 nM. To `COc1cc2c(cc1F)CN(c1cn[nH]c(=O)c1C(F)(F)F)C2` [Example 234, 5-(5-Fluoro-6-methoxyisoindolin-2-yl)-4-(trifluoromethyl)pyridazin-3(2H)-one] belongs below 100 nM.

On to `O=c1[nH]ncc(N2Cc3ccccc3C2CO)c1C(F)(F)F` (stereo not shown) [Example 235, 5-(1-(Hydroxymethyl)isoindolin-2-yl)-4-(trifluoromethyl)pyridazin-3(2H)-one], for which the IC50 is at least 1000 nM. For `O=c1[nH]ncc(N2Cc3cccnc3C2)c1C(F)(F)F` [Example 236, 5-(5,7-Dihydro-6H-pyrrolo[3,4-b]pyridin-6-yl)-4-(trifluoromethyl)pyridazin-3(2H)-one], the IC50 was below 100 nM.

On to `CN1CCC(Oc2ccc3c(c2)CN(c2cn[nH]c(=O)c2C(F)(F)F)C3)C1` (stereo not shown) [Example 238, 5-(5-((1-Methylpyrrolidin-3-yl)oxy)isoindolin-2-yl)-4-(trifluoromethyl)pyridazin-3(2H)-one], for which the IC50 was below 100 nM. In turn, `COCC1c2ccccc2CN1c1cn[nH]c(=O)c1C(F)(F)F` (stereo not shown) [Example 239, 5-(1-(Methoxymethyl)isoindolin-2-yl)-4-(trifluoromethyl)pyridazin-3(2H)-one] came in with an IC50 of at least 1000 nM. To `O=c1[nH]ncc(N2Cc3cccc(OCCN4CCOCC4)c3C2)c1Cl` [Example 240, 4-Chloro-5-(4-(2-morpholinoethoxy)isoindolin-2-yl)pyridazin-3(2H)-one] belongs 100 to 1000 nM; to `CC(=O)NCCOc1cccc2c1CN(c1cn[nH]c(=O)c1Cl)C2` [Example 241, N-(2-((2-(5-Chloro-6-oxo-1,6-dihydropyridazin-4-yl)isoindolin-4-yl)oxy)ethyl)acetamide], 100 to 1000 nM; to `O=c1[nH]ncc(N2Cc3cccc(OC4CCNC4)c3C2)c1Cl` (stereo not shown) [Example 242, 4-Chloro-5-(4-(pyrrolidin-3-yloxy)isoindolin-2-yl)pyridazin-3(2H)-one], 100 to 1000 nM. `CC(C)c1c(N2Cc3cccc(OCCO)c3C2)cn[nH]c1=O` [Example 243, 5-(4-(2-Hydroxyethoxy)isoindolin-2-yl)-4-isopropylpyridazin-3(2H)-one] displayed an IC50 of at least 1000 nM. Take `O=c1[nH]ncc(N2Cc3ccc(OC4CCCNC4)cc3C2)c1C(F)(F)F` (stereo not shown) [Example 244, 5-(5-(Piperidin-3-yloxy)isoindolin-2-yl)-4-(trifluoromethyl)pyridazin-3(2H)-one]: the IC50 lay in the range of 100 to 1000 nM. `O=c1[nH]ncc(N2Cc3cc(F)c(OCCO)cc3C2)c1C(F)(F)F` [Example 245, 5-(5-Fluoro-6-(2-hydroxyethoxy)isoindolin-2-yl)-4-(trifluoromethyl)pyridazin-3(2H)-one] gave an IC50 below 100 nM.

`O=c1[nH]ncc(N2Cc3ccccc3[C@@H]2CO)c1C(F)(F)F` [Example 246, (R)-5-(1-(Hydroxymethyl)isoindolin-2-yl)-4-(trifluoromethyl)pyridazin-3(2H)-one] displayed an IC50 of at least 1000 nM. To `O=c1[nH]ncc(N2Cc3ccccc3[C@H]2CO)c1C(F)(F)F` [Example 247, (S)-5-(1-(Hydroxymethyl)isoindolin-2-yl)-4-(trifluoromethyl)pyridazin-3(2H)-one] belongs at least 1000 nM.

Turning to `CC(C)c1c(N2Cc3cccc(OC4CCNCC4)c3C2)cn[nH]c1=O` [Example 248, 4-Isopropyl-5-(4-(piperidin-4-yloxy)isoindolin-2-yl)pyridazin-3(2H)-one], the IC50 is at least 1000 nM.

In turn, `CC1c2ccccc2CN1c1cn[nH]c(=O)c1C(F)(F)F` (stereo not shown) [Example 249, 5-(1-Methylisoindolin-2-yl)-4-(trifluoromethyl)pyridazin-3(2H)-one] gave an IC50 of 100 to 1000 nM.

Regarding `C[C@H]1c2ccccc2CN1c1cn[nH]c(=O)c1C(F)(F)F` [Example 250, (S)-5-(1-Methylisoindolin-2-yl)-4-(trifluoromethyl)pyridazin-3(2H)-one], the IC50 lay within 100 to 1000 nM. The figure for `C[C@@H]1c2ccccc2CN1c1cn[nH]c(=O)c1C(F)(F)F` [Example 251, (R)-5-(1-Methylisoindolin-2-yl)-4-(trifluoromethyl)pyridazin-3(2H)-one] is at least 1000 nM. To `CC(Oc1cccc2c1CN(c1cn[nH]c(=O)c1C(F)(F)F)C2)c1ccncc1` (stereo not shown) [Example 252, 5-(4-(1-(Pyridin-4-yl)ethoxy)isoindolin-2-yl)-4-(trifluoromethyl)pyridazin-3(2H)-one] belongs below 100 nM; to `O=c1[nH]ncc(N2Cc3cccc(N4CCOCC4)c3C2)c1C(F)(F)F` [Example 253, 5-(4-Morpholinoisoindolin-2-yl)-4-(trifluoromethyl)pyridazin-3(2H)-one], 100 to 1000 nM. Take `O=c1[nH]ncc(N2Cc3cccc(NCC4CCCO4)c3C2)c1C(F)(F)F` (stereo not shown) [Example 254, 5-(4-(((Tetrahydrofuran-2-yl)methyl)amino)isoindolin-2-yl)-4-(trifluoromethyl)pyridazin-3(2H)-one]: the IC50 is 100 to 1000 nM. The figure for `CN1CCN(CCOc2cccc3c2CN(c2cn[nH]c(=O)c2Cl)C3)CC1` [Example 255, 4-Chloro-5-(4-(2-(4-methylpiperazin-1-yl)ethoxy)isoindolin-2-yl)pyridazin-3(2H)-one] is at least 1000 nM; for `O=c1[nH]ncc(N2Cc3cccc(OCCN4CCCCC4)c3C2)c1Cl` [Example 256, 4-Chloro-5-(4-(2-(piperidin-1-yl)ethoxy)isoindolin-2-yl)pyridazin-3(2H)-one] it is at least 1000 nM; for `CN1CCC(Oc2cccc3c2CN(c2cn[nH]c(=O)c2Cl)C3)CC1` [Example 257, 4-Chloro-5-(4-((1-methylpiperidin-4-yl)oxy)isoindolin-2-yl)pyridazin-3(2H)-one] it is at least 1000 nM.

These data come from patent US10550105B2 (Ribon Therapeutics Inc., priority 2018, dated 2020).
